Experimental data reported in EP0032564A1, “Pharmaceutical use of caroverine and/or salts of caroverine, as well as salts of caroverine with xanthine acid remainders and nicotinic acid remainder” (MEDICHEMIE AG, priority 1979, dated 1981).
Structures can show the parent of a compound that is named as a salt.

What was measured:
[1] = test system: isolierte, nach Langendorff perfundierte Meerschweinchenherz; assay: Isolated Langendorff-perfused guinea pig heart: coronary flow, contraction amplitude, heart rate; design: species or system Meerschweinchen; settings: for Herzfrequenz: in all experiments; for Coronardurchfluss: single doses Caroverin 1-1000 ug, Theophyllin 10-1000 ug, 1000 Theophyllin about equal to 100 Caroverin
From the text: Meerschweinchen wurden durch Genickschlag getötet, der Thorax eröffnet, der Herzbeutel aufgeschnitten, die Aorta mit einem Faden angeschlungen und in der pars ascendens angeschnitten. Nach Einbinden einer Glaskanüle in die Aorta wurde die aorta pulmonalis eröffnet und anschliessend das Coronargefässsystem durch die Aortenkanüle unter leichten Druck mit einer Spitze durchgespült. Nach Dulchirennung aller anhängenden Gefässe wurde das Herz an der Aortenkanüle in die feuchte Kammer einer modifizierten Langendorff-Apparatur gehängt und mit carbogengesättigter Tyrodelösung von 37^uC mit einem Druck von 55 cm H20 perfundiert. An der Herzspitze wurde eine Serre fine angebracht, die über einen Faden mit einem zweiarmigen Hebel verbunden war, der die Kontraktionsamplitude auf einem Russkymographen aufzeichnete. Alle Herzen waren mit 4 g belastet. Der Schreibhebel passierte bei seinen Ausschlägen die Lichtschranke einer Fotozelle. Dadurch konnte die Herzfrequenz über einen Totalisator (nach FLEISCH, Firma B. Braun, Melsungen) registriert werden. Die aus dem rechten Vorhof frei abfliessende Perfusionslösung tropfte auf einen elektrischen Kontakt. Die Tropfenzahl wurde mittels eines zweiten Totalisators aufgezeichnet,und nach Eichung in ml/min der Coronardurchfluss bestimmt.
Nach Fertigstellung der Präparate wurde bis zum Versuchsbeginn 45 Min. gewartet. Nach dieser Zeit hatten Kontaktionsamplitude, Frequenz und Coronardurchblutung ein konstantes Niveau erreicht.
Caroverin wurde in Einzeldosen von 1, 10, 100 sowie 1000 ug verabreicht. Theophyllin wurde in Dosen von 10, 100 sowie 1000 ug gegeben. In allen Versuchen wurden Caroverin und Theophyllin abwechselnd verabreicht, wobei jeweils eine Zeitspanne von 5 Min. zwischen zwei Einzelinjektionen lag. Alle Injektionsvolumina betrugen 0.1 ml.
Die Effekte der Substanzen wurden ermittelt,indem in jedem Versuch bei jeder Einzeldosis die maximalen Zu- bzw. Abnahmen der entsprechenden Parameter gegenüber dem jeweiligen Ausganswert bestimmt und diese Einzeleffekte gemittelt wurden. Statistische Signifikanzberechnungen erfolgten nach dem t-Test (student's-Test).

[2] = test system: Ca^++-Einstrom; assay: Isolated guinea pig papillary muscle: intracellular action potentials and isometric mechanograms; design: species or system Meerschweinchen
From the text: Die Aktionspotentiale […] an ein und derselben Myocardfaser gewonnen. Die einzelnen Konzentrationen kamen jeweils für die Dauer von 40 Minuten zur Anwendung.

[3] = test system: K^+-Kontraktur isolierter Coronararterienstreifen; assay: K+ contracture of isolated pig coronary artery strips; design: species or system Schwein
From the text: Partielle Restitution der mechanischen Spannungsentwicklung durch Extra-Calcium.

[4] = test system: glatten Coronar-Muskulatur; assay: k-Strophanthin-induced tone of pig coronary smooth muscle; design: species or system Schwein; settings: higher concentration of k-Strophanthin, partial restitution by raised extracellular Ca++ (Fig. 15)
From the text: Teilweise Restitution des Coronartonus durch Steigerung der extra-cellulären Ca^++-Konzentration.

[5] = test system: Thrombozytenaggregation; assay: Collagen-induced platelet aggregation in platelet-rich plasma, turbidimetry; format: cell-based, Kaninchen
From the text: Thrombozytenreiches Plasma wurde aus citriertem Kaninchenblut gewonnen. Die Thrombozytenaggregation wurde durch Collagen aus Rinder- Achillessehnen induziert, worauf der Aggregations-Hemmeffekt durch optische Trübungsmessung (Turbidimetrie) untersucht und quantifiziert werden konnte.
Bei diesen Diagrammen handelt es sich um Aufnahmen des zeitlichen Verlaufes einer optischen Messgrösse als Mass eines durch das Präparat tretenden Lichtanteils, entsprechend einem reziproken Mass für den Agglutinations- oder Aggregationsgrad. Die verschiedenen Messkurven für je eine Wirksubstanz entsprechen unter- schiedlichen molaren Konzentrationen in Mikromol des Wirkstoffes als Parameter. Die erste Messkurve in Fig. 1 entspricht einem Kontroll-Leerversuch.

[6] = test system: Maus; assay: Acute toxicity in the mouse (new caroverine salts); format: in vivo; settings: for Akute Toxizität, observation: in vivo; for Letale Dosis: mouse, i.p.
Procedure: Letale Dosis: • 200 mg/kg i.p..

[7] = test system: Ratten; assay: Diuretic effect in rats, method of Lipschitz et al. (Na excretion score); format: in vivo; settings: 20 mg/kg p.os, quotient of Na excretion after test substance to Na excretion of control
From the text: Diese Untersuchung an Ratten wurde nach der Methode von Lipschitz et al., j.p.e.t. 79, 97-110, 1954, durchgeführt.
Der errechnete Score entspricht einem Quotienten aus Na-Ausscheidungen nach der Testsubstanz durch Na-Ausscheidung des Kontroll-Leerwertes.
Die Untersuchung an Ratten wurde wie unter 1. durchgeführt. Für den diuretischen Wirkungs-Score gilt gleiches.

[8] = test system: Meerschweinchen-Lungenpräparat; assay: Bronchodilator effect on guinea pig lung preparation (perfusion flow rate); settings: in vitro, 100 µg/ml
[9] = test system: Agonisten (Atropin); assay: Anticholinergic effect in vitro, guinea pig; design: species or system Meerschweinchen; settings: 10 µg/ml
Procedure: In vitro ergab sich am Meerschweinchen mit einer Dosis von 10 µg/ml eine mehr als 80 %ige Hemmung des verwendeten Agonisten (Atropin).

[10] = test system: Thrombozytenaggregation; assay: Collagen-induced platelet aggregation, same method on human blood preparations; format: cell-based, menschlichem Blut; settings: same method as with rabbit plasma
[11] = test system: Hunden; assay: Coronary sinus outflow, systemic blood pressure and heart rate in dogs; format: in vivo; settings: dogs, 0,03-3,0 mg/kg, effect increases with dose (Fig. 4-6)
Procedure: Es wurde der coronare Sinus-Ausfluss(CSF), der System-Blutdruck (SEP) und die Herzfrequenz (HR) an Hunden untersucht. Für den coronaren Sinus-Ausfluss wurde die in Clin. Pharmacol. Physiol., 5, 107 - 115, 1978, Australien,beschriebene Untersuchungsmethode angewendet.
Zeitdiagramme der genannten Messgrössen SBP (mmHg), CSF (ml/min) und HR (min ) wurde für […] verschiedene Dosierungen von Caroverinfumarat, nämlich 0,03, 0,1, 0,3, 1,0 und 3,0 mg/kg (bezogen auf das Körpergewicht) aufgenommen. Die Diagramme für die drei erstgenannten Dosierungswerte sind in Fig. 4 und diejenigen für die beiden letztgenannten Dosierungswerte in Fig. 5 bzw. Fig. 6 wiedergegeben. Der Zuführungszeitpunkt der Wirksubstanz ist in den Diagrammen gemäss Fig. 4 durch das Zeichen "o" markiert, während in den Diagrammen gemäss Fig. 5 und 6 das Zuführungsintervall jeweils durch einen Horizontalstrich unterhalb der CSF-Messkurve angegeben ist.

[12] = Acute toxicity (LD50) in male mice; settings: mouse, in vivo
From the text: Untersuchung der akuten Toxizität an männlichen Mäusen
Es wurden folgende Standard-Grenzwerte LDSO (mg/kg) ermittelt:
Toxizitätsuntersuchung an männlichen Mäusen

[13] = test system: Herzfrequenz; assay: Clinical study: heart rate under stepwise i.v. dosing, treatment groups A, B, C; format: in vivo, Menschen
From the text: • a) Anzahl: je 6 Patienten der Gruppen A, B und C. Die Probandenzahl der Gruppe D hängt davon ab […] hoc finden. • b) Die […] des Prüfers. • c) Kontraindikationen […], die nicht für eine klinische Studie mit Ca-Antagonisten geeignet sind, oder unter […] leiden, die die Resultate […]. Die […] 10 und 5' vor Beginn der Medikation. […] Nach Beendigung der Medikation, Nachkontrolle in 10-[…] bis ca. 4 Stunden nach Beginn der Medikation. Abbruch der Medikation bei: • 1) AV-Block 1. […] In einem ersten Schritt wurden die Zeitreihen (Herzfrequenz-Mittelwerte und Streuungen) je Behandlungsgruppe einzeln berechnet und graphisch dargestellt (s. Abbildung und […], die […] auch […] und der 3 Stunden Nachbeobachtung unterscheiden. Es ist ebenfalls festzuhalten, dass die Werte zu Beginn der Applikation gegenüber den Vorwerten durchwegs erhöht sind. Um die Herzfrequenz-Verläufe […] zu […] Differenzen der Mittelwerte zu jedem […] zu den Vorwerten als auch zum Wert bei […] und […] - unter […] und […] - auf Signifikanz geprüft.

[14] = test system: anemische Decerebrationsstarre; assay: Inhibition of anemic decerebrate rigidity in rats, method of Fukuda et al.; format: in vivo, Wister-Ratten; settings: male rats, i.v.; for ED50: Rattus norvegicus, iv, read-out: Dosis für 50%ige Inhibierung; for ED50 / Zeit für 50%ige Erholung: anemic decerebrate rigidity
From the text: Die Untersuchungen wurden ausgeführt nach der Methode von Fukuda et al. (Japanese Journal of Pharmacology, Band 24, Seiten 810 - 813, 1974).
Es wurden männliche Wister-Ratten mit einem Köpergewicht von 280 - 380 g verwendet. Die Tiere wurden mit Aether betäubt und am Rücken befestigt. Nach Freilegen der Luft- und Speiseröhre sowie der beiderseitigen, gemeinsamen Carotisarterien wurde die Luftröhre kanüliert und die Speiseröhre abgetrennt. Das Hinterhauptbein wurde durch Abschaben der anhängenden Muskulatur freigelegt. Nach beidseitigem Abbinden der gemeinsamen Carotisarterien wurde im mittleren Teil des Hinterhauptbeines eine Oeffnung von 5 mm Durchmesser trepaniert, um die Basilararterie sichtbar zu machen. Die dura mater wurde längs der Basilararterie durchschnitten und letztere mit einem Coagulator ausgeätzt. Unmittelbar nach Beendigung dieser Massnahmen wurde die Anästhesie unterbrochen. Innerhalb von 30-min entwickelte sich Starre, und es trat eine deutliche Streckung der Extremitäten, des Nackens und des Schwanzes ein. Die Streckung der Vordergliedmassen wurde mit einem Dehnungsmessstreifen erfasst. 50 min nach Erholung von der Betäubung wurden in Salzlösung aufgelöste Pharmaka durch eine in die Oberschenkelvene eingeführte Kanüle intravenös zugeführt. Die verwendeten Pharmaka waren Caroverinfumarat und Referenz-Agenzien, nämlich Mephenesin und Tolperison-Hydrochlorid. Das Ergebnis nach Zuführung von 2 mg/kg Caroverinfumarat sind in der nachstehend eingefügten Tabelle wiedergegeben.

[15] = test system: Patienten mit Arrhythmia absoluta
Procedure: Bei insgesamt 6 Patienten (5♀, 1 ♂) mit Arrhythmia absoluta wurden innerhalb 3 - 5 Min. 200 mg Caroverinfumarat i.v. verabreicht. […] Mittleres Alter der Probanden war 65 (+6/-11) Jahre. Registriert wurden EKG (Frequenz) und Blutdruck (Riva-Rocci) bis max. 13 Minuten nach Injektionsbeginn. Die Min.-Frequenz ermittelte sich aus 10 aufeinanderfolgenden QRS-Komplexen.

[16] = group B, ca. 70 min after start of application
[17] = group C, 2 1/2 to 3 h after start of application

In the case of `CCN(CC)CCn1c(=O)c(Cc2ccc(OC)cc2)nc2ccccc21` [Caroverin, 1-(2-diäthylaminoäthyl)-3-(p-methoxybenzyl)-1,2-dihydroquinoxalon-2], the Herzfrequenz ([1]; 100 µg) is reported as “langanhaltenden frequenzsenkenden Effekt”, the Kontraktionsamplitude ([1]; 100 µg, p < 0.01) is reported as “verminderte die Kontraktionsamplitude signifikant” and the Coronardurchfluss [1] is reported as “dosisabhängige, coronardurchflusssteigernde Wirkung”. For the same molecule, the “elektrische Parameter Ca^++-getragener Aktionspotentiale (AP-Amplitude, max. Aufstrichsteilheit, AP-Dauer) und zugehörige Mechanogramme” value ([2]; about the same concentration range (10 mg/l)) was “hemmt”, the “Blockade des Ca^++-Einstroms während der Erregung” value ([2]; electrically stimulated isolated guinea pig papillary muscle, 10 mg Caroverin/l (Fig. 12)) was about 50% and the “transmembranäre Na- und K^+-Fluxe” value ([2]; isolated guinea pig papillary muscle, 10 mg Caroverin/l) was “ohne die transmembranären Na - und K^+-Fluxe zu reduzieren”. The inhibition at 0.25 µg/mL ([3]; Sus scrofa, pig, 0,25 mg Caroverin/l (Fig. 13 and 14), read-out: elektromechanische Entkoppelung K^+-depolarisierter Coronararterienstreifen) was about 50%, the “K^+-Kontraktur isolierter Coronararterienstreifen” value ([3]; pig, rising concentrations 0,05, 0,1 and 0,5 mg/l, partial restitution by extra calcium (Fig. 13)) was “Hemmungen der K^+-Kontraktur” and the “K^+-Kontraktur isolierter Coronararterien-Streifen” value ([3]; pig, rising concentrations 1,0, 2,0 and 5,0 mg/l, partial restitution by extra calcium at 1 mg/l (Fig. 14)) was “Hemmung der K^+-Kontraktur”. The “tonussteigernde Effekte von k-Strophanthin” value [4] was “Neutralisation der tonussteigernden Effekte”.
In the case of `CCN(CC)CCn1c(=O)c(Cc2ccc(OC)cc2)nc2ccccc21` [Caroverin-Nicotinat], the inhibition at 10 µg/mL ([5]; Oryctolagus cuniculus, Platelet, in vitro, rabbit, 10 mcg/ml, read-out: Hemmung der collagen-induzierten Plättchenaggregation) is reported as 100%, the “Akute Toxizität, observation” value ([6]; 300 mg/kg) is reported as “keine Auffälligkeiten” and the “Akute Toxizität, observation” value ([6]; ip, 100 mg/kg) is reported as “Abnahme des Muskeltonus in den Extremitäten, sowie eine leichte Abnahme des Haltegriffes”. The “Letale Dosis” value [6] was 200 mg/kg, the “diuretischer Wirkungs-Score” value ([7]; 20 mg/kg) was 2.6 and the Perfusions-Fliessrate [8] was “eindeutige Zunahme der Perfusions-Fliessrate”. The “Hemmung des verwendeten Agonisten (Atropin)” value [9] was over 80%.
For `CCN(CC)CCn1c(=O)c(Cc2ccc(OC)cc2)nc2ccccc21` [Caroverin-Theophyllinat], the “Akute Toxizität, observation” value ([6]; 300 mg/kg) was “keine Auffälligkeiten”, the “Akute Toxizität, observation” value ([6]; ip, 100 mg/kg) was “leichte Muskelrelaxation” and the “Letale Dosis” value [6] was 200 mg/kg. The “diuretischer Wirkungs-Score” value ([7]; 20 mg/kg) was 2.8, the Perfusions-Fliessrate [8] was “eindeutige Zunahme der Perfusions-Fliessrate” and the “Hemmung des verwendeten Agonisten (Atropin)” value [9] was over 80%.
With `CCN(CC)CCn1c(=O)c(Cc2ccc(OC)cc2)nc2ccccc21` [Caroverinfumarat] the Aggregations-Hemmeffekt ([5]; rabbit platelet-rich plasma, collagen from bovine Achilles tendon, several micromolar concentrations (Fig. 1-3), intensity between Benzyclanfumarat and Aspirin) was “eindeutigen Hemmungseffekt”, the Aggregations-Hemmeffekt [10] was “Aehnliche Ergebnisse” and the “Herzfrequenz (HR)” value [11] was “Herabsetzung der Herzfrequenz”. For the same molecule, the “System-Blutdruck (SBP)” value [11] was “Herabsetzung des System-Blutdrucks”, the “coronarer Sinus-Ausfluss (CSF)” value [11] was “Rasch zunehmende und langsam abklingende Zunahme des coronaren Sinus-Ausflusses” and the LD50 ([12]; intravenous) was 39 mg/kg. For the same molecule, the LD50 ([12]; ip, intraperitoneal) was 138 mg/kg, the LD50 ([12]; oral) was 800 mg/kg and the “mittlere Herzfrequenz, % of value before application” value (shortened to “mittlere Herzfrequenz, %”) ([13]; group A (heart-healthy), end of application after 40 min) was 86%. The “mittlere Herzfrequenz” value ([13]; group A (heart-healthy), end of application after 40 min, 20 mg i.v. then 10 mg every 4 min up to 120 mg, baseline 72/Min.) was 62 min⁻¹, the “mittlere Herzfrequenz, %” value ([13]; group A, 2 h after start of application) was 79% and the “mittlere Herzfrequenz” value ([13]; group A, 2 h after start of application, lasting to end of 4 h observation) was 57 min⁻¹. The “mittlere Herzfrequenz, %” value ([13]; group B (coronary heart disease), end of application) was 90%, the “mittlere Herzfrequenz” value ([13]; group B (coronary heart disease), end of application, baseline 77/Min.) was 69 min⁻¹ and the “mittlere Herzfrequenz” value [13, 16] was 65 min⁻¹. The “mittlere Herzfrequenz, %” value [13, 16] was 84%, the “mittlere Herzfrequenz, %” value ([13]; group C (diseased conduction system), end of application) was 86% and the “mittlere Herzfrequenz” value ([13]; group C (diseased conduction system), end of application, baseline 66/Min.) was 57 min⁻¹. For the same molecule, the “mittlere Herzfrequenz” value [13, 17] was 54 min⁻¹, the “mittlere Herzfrequenz, %” value [13, 17] was 82% and the ED50 [14] was 1.5 mg/kg. The “Zeit für 50%ige Erholung” value [14] was over 30 min, the “anemische Decerebrationsstarre” value ([14]; stronger and longer lasting than Tolperison-Hydrochlorid and Mephenesin) was “unverzüglich aufgehoben” and the Vorhofflimmer-Frequenz ([15]; 6 patients, 200 mg i.v.) was “ohne messbare Veränderung”. The “rhythmisierender Effekt” value ([15]; 6 patients, 200 mg i.v.) was “nicht nachgewiesen”, the “maximale systolische Blutdruckabfall” value ([15]; 6 patients, 200 mg i.v. within 3-5 min) was 29,3 (+ 8,2/-9,3) % and the “diastolische Blutdruckabfall” value ([15]; mean of 6 patients, 200 mg i.v. within 3-5 min) was 26,6 (+ 10,9/-11,6) %. For the same molecule, the “maximale Frequenz-Abfall im Vergleich zum Ausgangswert” value ([15]; mean of 6 patients, 200 mg i.v. within 3-5 min, up to 13 min after start of injection) was 26,6 (+ 7,2/-4,7) %.
With `Cc1ccccc1OCC(O)CO` (centres unmarked) [Mephenesin] the ED50 [14] was 25 mg/kg and the “Zeit für 50%ige Erholung” value [14] was “ca 13 min”.
For `CC(=O)S[C@@H]1CC2=CC(=O)CC[C@]2(C)[C@H]2CC[C@@]3(C)[C@@H](CC[C@@]34CCC(=O)O4)[C@H]12` [Spironolacton, reference compound], the “diuretischer Wirkungs-Score” value [7] was 3.6.
In the case of `Cn1c(=O)c2[nH]cnc2n(C)c1=O` [Theophyllin, reference compound], the Herzfrequenz ([1]; 1000pg as printed) is reported as “die Herzfrequenz vorübergehend steigerte”, the Kontraktionsamplitude ([1]; doses used (10, 100, 1000 ug)) is reported as “keine signifikanten Aenderungen der Kontraktionsamplitude” and the Coronardurchfluss [1] is reported as “steigernde Wirkung auf den Coronardurchfluss”.
In the case of `Cc1ccc(C(=O)C(C)CN2CCCCC2)cc1` (centres unmarked) [Tolperison-Hydrochlorid], the ED50 [14] is reported as 4 mg/kg and the “Zeit für 50%ige Erholung” value [14] is reported as “ca. 10 min”.
